Columns and labels:
Tagia sp. = conditions: chronic/long-term; duration: 56 days; reproduction
Hypoaspis aculeifer = conditions: chronic/long-term; duration: 14 days; reproduction
Folsomia candida = conditions: chronic/long-term; duration: 28 days; reproduction
Aphidius rhopalosiphi = experiment: LR50; higher = less toxic; conditions: not reported; mortality
Pimephales promelas = conditions: chronic/long-term; duration: 262 days; growth
Apis mellifera = conditions: acute, mortality
[1] = chronic
Canidae = conditions: oral, Dog Other, organ weight
Cyprinodon variegatus = conditions: acute; duration: 96 hours; mortality
Mus musculus = conditions: acute; mortality
Bibionidae = conditions: chronic/long-term; duration: 28 days
Colinus virginianus = conditions: oral
Daphnia magna = conditions: chronic/long-term; duration: 21 days; reproduction
Anas platyrhynchos = conditions: reproductive

COc1cccc(C(=O)NN(C(=O)c2cc(C)cc(C(=O)O)c2)C(C)(C)C)c1C
NOEC (Tagia sp.): 20 mg/kg
NOEC (Hypoaspis aculeifer): 1000 mg/kg
NOEC (Folsomia candida): 20 mg/kg

COc1cccc(C(=O)NN(C(=O)c2cc(C)cc(C)c2)C(C)(C)C)c1C [Methoxyfenozide]
LR50 (Aphidius rhopalosiphi): > 192 g/ha
NOEC (Pimephales promelas): 0.53 mg/L
LD50 (Apis mellifera; duration: 48 hours, dermal): > 100 µg/piece
LD50 (Apis mellifera; duration: 72 hours, oral, unspecified): > 2000 µg/piece
NOEC [1]: 0.01 mg/L
NOEC (Tagia sp.): 2.04 mg/kg
NOAEL (Canidae; chronic, duration: 1 years): 9.8 mg/kg-day
NOAEL (Canidae; short-term, duration: 2 weeks): 18 mg/kg-day
LC50 (Cyprinodon variegatus): > 2.8 mg/L
LD50 (Mus musculus): > 5000 mg/kg
NOEC (Bibionidae): 0.0065 mg/L
LD50 (Rattus norvegicus; acute, oral, mortality): > 5000 mg/kg
NOAEL (Rattus norvegicus; chronic, duration: 2 years, organ weight): 10.2 mg/kg-day
NOAEL (Rattus norvegicus; reproduction developmental, M, body weight): 153 mg/kg-day
LD50 (Colinus virginianus; acute, mortality): > 2250 mg/kg-day
NOEC (Colinus virginianus; reproduction developmental, diet): > 82.7 mg/kg-day
NOEC (Daphnia magna): 0.39 mg/L
NOEC (Folsomia candida): 20.5 mg/kg
NOEL (Anas platyrhynchos): 138 mg/kg-day

Cc1cc(C)cc(C(=O)N(NC(=O)c2cccc(O)c2C)C(C)(C)C)c1
LD50 (Mus musculus): > 5000 mg/kg

From EPA's ToxValDB 9.5 (doi:10.2903/j.efsa.2017.4978)
